Laboratory results: ChEMBL document CHEMBL4265902, “Design and synthesis of cyclopropane-based conformationally restricted GABA analogues as selective inhibitors for betaine/GABA transporter 1” (Bioorg Med Chem Lett, 2018)

Experiments:
[1] = target: T1, Sodium- and chloride-dependent GABA transporter 3 (Homo sapiens) (UniProt P48066); test: Inhibition of human GAT3 expressed in CHO cells assessed as reduction in [3H]GABA uptake at 100 uM after 20 mins by liquid scintillation counting analysis relative to control; assay type: cell-based
T1 sequence (whole entry): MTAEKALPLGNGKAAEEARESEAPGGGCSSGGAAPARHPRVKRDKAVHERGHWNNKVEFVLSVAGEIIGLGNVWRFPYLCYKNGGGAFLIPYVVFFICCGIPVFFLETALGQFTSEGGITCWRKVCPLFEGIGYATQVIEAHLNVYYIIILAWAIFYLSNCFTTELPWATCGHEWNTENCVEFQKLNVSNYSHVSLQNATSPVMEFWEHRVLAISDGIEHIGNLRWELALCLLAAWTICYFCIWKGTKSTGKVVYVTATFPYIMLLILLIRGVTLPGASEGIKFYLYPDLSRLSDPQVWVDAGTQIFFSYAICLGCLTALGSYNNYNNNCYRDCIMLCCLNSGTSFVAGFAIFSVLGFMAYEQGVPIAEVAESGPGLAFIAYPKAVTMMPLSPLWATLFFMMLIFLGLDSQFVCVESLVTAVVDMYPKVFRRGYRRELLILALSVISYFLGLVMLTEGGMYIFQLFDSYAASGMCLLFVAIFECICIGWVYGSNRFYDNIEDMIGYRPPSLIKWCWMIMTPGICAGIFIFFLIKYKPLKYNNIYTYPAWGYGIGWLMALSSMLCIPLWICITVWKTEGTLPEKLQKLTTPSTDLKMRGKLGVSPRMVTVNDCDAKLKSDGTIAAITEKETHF

[2] = target: T2, Sodium- and chloride-dependent GABA transporter 2 (Homo sapiens) (UniProt Q9NSD5); test: Inhibition of human GAT2 expressed in CHO cells assessed as reduction in [3H]GABA uptake at 100 uM after 20 mins by liquid scintillation counting analysis relative to control; assay type: cell-based
T2 sequence (whole entry): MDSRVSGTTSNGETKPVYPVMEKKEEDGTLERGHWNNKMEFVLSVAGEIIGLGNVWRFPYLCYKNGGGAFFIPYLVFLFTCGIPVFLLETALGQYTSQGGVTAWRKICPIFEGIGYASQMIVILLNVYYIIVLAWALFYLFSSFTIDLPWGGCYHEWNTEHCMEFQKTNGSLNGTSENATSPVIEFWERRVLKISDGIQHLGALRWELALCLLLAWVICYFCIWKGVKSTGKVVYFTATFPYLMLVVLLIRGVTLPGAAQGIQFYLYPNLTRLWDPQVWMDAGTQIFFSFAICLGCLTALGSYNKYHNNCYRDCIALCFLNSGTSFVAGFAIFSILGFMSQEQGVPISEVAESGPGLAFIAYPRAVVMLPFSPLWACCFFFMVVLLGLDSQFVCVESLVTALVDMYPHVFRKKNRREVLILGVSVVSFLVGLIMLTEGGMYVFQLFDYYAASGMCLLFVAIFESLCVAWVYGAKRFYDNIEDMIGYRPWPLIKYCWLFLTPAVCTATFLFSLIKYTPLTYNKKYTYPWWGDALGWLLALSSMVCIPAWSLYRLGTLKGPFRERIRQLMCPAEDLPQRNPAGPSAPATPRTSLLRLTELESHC

[3] = target: T3, Sodium- and chloride-dependent betaine transporter (Homo sapiens) (UniProt P48065); test: Inhibition of human BGT1 expressed in CHO cells assessed as reduction in [3H]GABA uptake at 100 uM after 20 mins by liquid scintillation counting analysis relative to control; assay type: cell-based
T3 sequence (whole entry): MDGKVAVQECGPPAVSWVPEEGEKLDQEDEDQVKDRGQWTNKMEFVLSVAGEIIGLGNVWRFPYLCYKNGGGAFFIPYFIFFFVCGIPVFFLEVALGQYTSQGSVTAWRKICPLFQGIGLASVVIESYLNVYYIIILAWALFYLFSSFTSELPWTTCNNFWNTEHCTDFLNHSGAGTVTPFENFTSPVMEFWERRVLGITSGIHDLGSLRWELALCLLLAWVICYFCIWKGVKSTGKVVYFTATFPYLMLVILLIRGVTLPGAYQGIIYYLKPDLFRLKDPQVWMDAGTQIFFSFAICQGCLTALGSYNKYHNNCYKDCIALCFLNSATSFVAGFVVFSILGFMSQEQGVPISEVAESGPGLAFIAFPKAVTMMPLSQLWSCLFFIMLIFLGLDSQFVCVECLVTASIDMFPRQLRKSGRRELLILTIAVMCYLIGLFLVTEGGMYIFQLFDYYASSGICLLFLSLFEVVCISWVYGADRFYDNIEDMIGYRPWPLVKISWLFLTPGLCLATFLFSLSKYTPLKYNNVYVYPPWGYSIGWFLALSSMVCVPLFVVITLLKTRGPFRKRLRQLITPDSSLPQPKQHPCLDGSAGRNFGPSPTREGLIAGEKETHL

[4] = target: Sodium- and chloride-dependent GABA transporter 1 (Homo sapiens) (UniProt P30531); test: Inhibition of human GAT1 expressed in CHO cells assessed as reduction in [3H]GABA uptake at 100 uM after 20 mins by liquid scintillation counting analysis relative to control; assay type: cell-based
Sodium- and chloride-dependent GABA transporter 1 (Homo sapiens), sequence (P30531 whole entry, looked up): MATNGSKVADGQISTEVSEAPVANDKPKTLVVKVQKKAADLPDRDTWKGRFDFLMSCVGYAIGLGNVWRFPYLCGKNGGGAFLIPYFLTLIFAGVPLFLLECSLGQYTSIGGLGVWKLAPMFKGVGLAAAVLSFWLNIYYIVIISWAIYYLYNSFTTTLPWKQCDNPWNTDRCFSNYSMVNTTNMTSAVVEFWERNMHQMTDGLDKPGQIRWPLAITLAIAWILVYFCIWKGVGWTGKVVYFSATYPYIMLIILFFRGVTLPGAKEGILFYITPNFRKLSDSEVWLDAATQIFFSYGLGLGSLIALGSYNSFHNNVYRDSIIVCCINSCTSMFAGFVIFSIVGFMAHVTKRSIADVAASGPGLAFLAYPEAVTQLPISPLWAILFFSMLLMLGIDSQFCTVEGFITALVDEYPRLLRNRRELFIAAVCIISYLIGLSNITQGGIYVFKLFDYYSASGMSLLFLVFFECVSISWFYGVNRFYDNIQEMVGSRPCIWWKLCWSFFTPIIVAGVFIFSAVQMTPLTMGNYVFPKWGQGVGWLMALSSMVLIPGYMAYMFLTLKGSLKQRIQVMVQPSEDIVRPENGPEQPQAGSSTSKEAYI

Homo sapiens = species: Homo sapiens; test: Selectivity for human BGT1 over human GAT3

| inhibition [1] [%] | inhibition [2] [%] | inhibition [3] [%] | inhibition [4] [%] | Selectivity ratio (Homo sapiens) | SMILES |
| --- | --- | --- | --- | --- | --- |
| -2.4 | 3.3 | 13.4 | 8.6 | – | CC[C@@H](C(=O)O)[C@@H]1C[C@H]1N |
| 9.3 | -5.2 | 62.7 | 4.3 | 5 to 7 | C[C@@H](C(=O)O)[C@@H]1C[C@H]1N |
| 25.6 | – | 57.3 | 0 | – | C[C@H](C(=O)O)[C@@H]1C[C@H]1N |
| – | -2.4 | -1.3 | 12.2 | – | CC[C@H](C(=O)O)[C@@H]1C[C@H]1N |

More lines, now with the values behind:

| SMILES | inhibition [1] [%] | inhibition [2] [%] | inhibition [3] [%] | inhibition [4] [%] | Selectivity ratio (Homo sapiens) |
| --- | --- | --- | --- | --- | --- |
| C=C[C@@H](C(=O)O)[C@@H]1C[C@H]1N | -3.6 | -9.5 | – | – | – |
| N[C@@H]1C[C@H]1[C@@H](F)C(=O)O | 5.2 | 45.3 | 22.2 | – | – |
| [N-]=[N+]=N[C@@H](C(=O)O)[C@@H]1C[C@H]1N | 11.8 | 6.8 | 57.2 | – | 5 to 7 |
| N[C@@H]1C[C@H]1[C@@H](O)C(=O)O | 8.3 | 20.1 | 44.7 | – | 5 to 7 |
